Test results from ChEMBL document CHEMBL5360651, “Progress on the Pharmacological Targeting of Janus Pseudokinases” (J Med Chem, 2023).

Legend:
[1] = molecular target: T1, Non-receptor tyrosine-protein kinase TYK2 (Homo sapiens, UniProt P29597); test: Inhibition of TYK2 JH2 in human KIT225 cells assessed as reduction of IFNalpha induced STAT1 phosphorylation by AlphaLISA assay; assay type: cell-based
[2] = molecular target: T2, Tyrosine-protein kinase JAK3 (Homo sapiens, UniProt P52333); test: Inhibition of JAK3 signaling pathway in human PBMC cells assessed as reduction of IL-2 induced STAT5 phosphorylation; assay type: cell-based
T2 sequence (P52333 whole entry): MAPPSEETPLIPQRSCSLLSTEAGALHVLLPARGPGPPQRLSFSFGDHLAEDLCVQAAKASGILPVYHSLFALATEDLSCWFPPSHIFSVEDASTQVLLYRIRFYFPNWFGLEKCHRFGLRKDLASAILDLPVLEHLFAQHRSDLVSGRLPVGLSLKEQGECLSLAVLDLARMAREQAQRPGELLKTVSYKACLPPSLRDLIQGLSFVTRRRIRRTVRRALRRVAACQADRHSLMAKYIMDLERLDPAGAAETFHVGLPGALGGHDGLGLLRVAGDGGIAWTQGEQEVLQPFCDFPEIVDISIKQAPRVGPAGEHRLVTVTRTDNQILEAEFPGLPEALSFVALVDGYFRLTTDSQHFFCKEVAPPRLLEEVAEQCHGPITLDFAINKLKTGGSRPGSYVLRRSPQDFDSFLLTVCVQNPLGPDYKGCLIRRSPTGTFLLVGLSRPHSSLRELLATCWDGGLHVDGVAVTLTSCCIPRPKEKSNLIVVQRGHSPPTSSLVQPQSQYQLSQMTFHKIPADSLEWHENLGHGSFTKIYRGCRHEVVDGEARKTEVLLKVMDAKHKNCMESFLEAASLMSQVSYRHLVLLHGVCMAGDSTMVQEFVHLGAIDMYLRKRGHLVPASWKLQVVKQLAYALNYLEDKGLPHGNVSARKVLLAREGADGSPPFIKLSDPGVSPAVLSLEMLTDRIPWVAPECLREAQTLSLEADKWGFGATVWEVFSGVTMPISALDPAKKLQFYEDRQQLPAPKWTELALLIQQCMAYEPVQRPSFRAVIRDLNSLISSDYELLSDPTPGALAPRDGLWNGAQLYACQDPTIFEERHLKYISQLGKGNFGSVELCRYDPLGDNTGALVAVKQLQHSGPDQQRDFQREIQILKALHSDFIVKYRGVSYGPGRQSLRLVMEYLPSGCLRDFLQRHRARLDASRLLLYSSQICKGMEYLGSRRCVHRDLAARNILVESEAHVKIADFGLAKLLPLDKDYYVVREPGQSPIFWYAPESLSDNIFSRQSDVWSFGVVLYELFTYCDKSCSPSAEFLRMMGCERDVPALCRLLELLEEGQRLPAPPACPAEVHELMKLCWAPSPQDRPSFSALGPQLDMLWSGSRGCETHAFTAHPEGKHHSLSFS

[3] = Solubility of compound at pH 6.5; assay type: physicochemical; settings: buffer
[4] = Half life in human liver microsomes; assay type: ADME, Microsome
[5] = molecular target: T1, Non-receptor tyrosine-protein kinase TYK2; assay type: cell-based, Sf9
[6] = molecular target: T1, Non-receptor tyrosine-protein kinase TYK2; test: Inhibition of human recombinant N-terminal His-tagged TYK2 (575 to 869 residues) expressed in baculovirus infected Sf9 cells at 1 uM incubated for 30 mins by scintillation method
[7] = molecular target: T3, Inhibitor of nuclear factor kappa-B kinase subunit beta (Homo sapiens) (UniProt O14920); test: Inhibition of IKKbeta (unknown origin) at 1 uM relative to control
T3 sequence (whole entry): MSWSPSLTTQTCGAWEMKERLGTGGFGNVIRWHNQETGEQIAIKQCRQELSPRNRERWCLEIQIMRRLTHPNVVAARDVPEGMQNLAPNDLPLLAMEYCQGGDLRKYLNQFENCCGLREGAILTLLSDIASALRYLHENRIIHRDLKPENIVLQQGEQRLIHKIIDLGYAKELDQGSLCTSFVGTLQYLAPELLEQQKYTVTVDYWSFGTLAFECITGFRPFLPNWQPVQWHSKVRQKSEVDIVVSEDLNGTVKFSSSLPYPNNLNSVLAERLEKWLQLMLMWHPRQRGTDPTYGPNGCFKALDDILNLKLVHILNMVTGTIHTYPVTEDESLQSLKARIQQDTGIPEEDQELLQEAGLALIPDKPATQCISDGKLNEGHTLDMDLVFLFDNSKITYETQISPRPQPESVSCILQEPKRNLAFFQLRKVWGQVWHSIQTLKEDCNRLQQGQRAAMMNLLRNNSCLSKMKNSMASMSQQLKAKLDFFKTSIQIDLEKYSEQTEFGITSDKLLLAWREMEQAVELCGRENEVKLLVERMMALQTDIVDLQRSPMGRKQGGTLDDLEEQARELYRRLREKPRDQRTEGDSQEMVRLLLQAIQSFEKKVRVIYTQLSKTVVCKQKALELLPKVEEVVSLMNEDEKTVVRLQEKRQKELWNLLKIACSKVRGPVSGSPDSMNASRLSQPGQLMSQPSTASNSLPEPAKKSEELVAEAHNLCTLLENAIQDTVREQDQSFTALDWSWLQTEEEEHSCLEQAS

[8] = Inhibition of JAK1 JH2 (unknown origin); set-up: species or system Homo sapiens
[9] = molecular target: T4, Tyrosine-protein kinase JAK2 (Homo sapiens, UniProt O60674)
[10] = molecular target: T1, Non-receptor tyrosine-protein kinase TYK2; assay type: cell-based, Sf9; remark: listed apart in the source
[11] = molecular target: Tyrosine-protein kinase JAK2 (Homo sapiens, UniProt O60674, V617F); test: Binding affinity to JAK2 V617F mutant (unknown origin) assessed as dissociation constant
[12] = molecular target: T4, Tyrosine-protein kinase JAK2; test: Binding affinity to wild type JAK2 JH2 (unknown origin)
[13] = Inhibition of PDE4 (unknown origin) by HTRF assay; set-up: species or system Homo sapiens
[14] = molecular target: T5, Tyrosine-protein kinase JAK1 (Homo sapiens, UniProt P23458)
[15] = molecular target: T5, Tyrosine-protein kinase JAK1; remark: listed apart in the source
[16] = molecular target: T1, Non-receptor tyrosine-protein kinase TYK2; test: Inhibition of TYK2 signalling pathway in human PBMC cells assessed as IFN alpha induced p-STAT1 level; assay type: cell-based
[17] = molecular target: T1, Non-receptor tyrosine-protein kinase TYK2; test: Inhibition of TYK2 signalling pathway in human PBMC cells assessed as IFN alpha induced p-STAT3 level; assay type: cell-based
[18] = molecular target: Voltage-gated inwardly rectifying potassium channel KCNH2 (Homo sapiens, UniProt Q12809); test: Inhibition of hERG by fluorescence polarization method; assay type: toxicity
Chain of Voltage-gated inwardly rectifying potassium channel KCNH2 (Q12809 whole entry): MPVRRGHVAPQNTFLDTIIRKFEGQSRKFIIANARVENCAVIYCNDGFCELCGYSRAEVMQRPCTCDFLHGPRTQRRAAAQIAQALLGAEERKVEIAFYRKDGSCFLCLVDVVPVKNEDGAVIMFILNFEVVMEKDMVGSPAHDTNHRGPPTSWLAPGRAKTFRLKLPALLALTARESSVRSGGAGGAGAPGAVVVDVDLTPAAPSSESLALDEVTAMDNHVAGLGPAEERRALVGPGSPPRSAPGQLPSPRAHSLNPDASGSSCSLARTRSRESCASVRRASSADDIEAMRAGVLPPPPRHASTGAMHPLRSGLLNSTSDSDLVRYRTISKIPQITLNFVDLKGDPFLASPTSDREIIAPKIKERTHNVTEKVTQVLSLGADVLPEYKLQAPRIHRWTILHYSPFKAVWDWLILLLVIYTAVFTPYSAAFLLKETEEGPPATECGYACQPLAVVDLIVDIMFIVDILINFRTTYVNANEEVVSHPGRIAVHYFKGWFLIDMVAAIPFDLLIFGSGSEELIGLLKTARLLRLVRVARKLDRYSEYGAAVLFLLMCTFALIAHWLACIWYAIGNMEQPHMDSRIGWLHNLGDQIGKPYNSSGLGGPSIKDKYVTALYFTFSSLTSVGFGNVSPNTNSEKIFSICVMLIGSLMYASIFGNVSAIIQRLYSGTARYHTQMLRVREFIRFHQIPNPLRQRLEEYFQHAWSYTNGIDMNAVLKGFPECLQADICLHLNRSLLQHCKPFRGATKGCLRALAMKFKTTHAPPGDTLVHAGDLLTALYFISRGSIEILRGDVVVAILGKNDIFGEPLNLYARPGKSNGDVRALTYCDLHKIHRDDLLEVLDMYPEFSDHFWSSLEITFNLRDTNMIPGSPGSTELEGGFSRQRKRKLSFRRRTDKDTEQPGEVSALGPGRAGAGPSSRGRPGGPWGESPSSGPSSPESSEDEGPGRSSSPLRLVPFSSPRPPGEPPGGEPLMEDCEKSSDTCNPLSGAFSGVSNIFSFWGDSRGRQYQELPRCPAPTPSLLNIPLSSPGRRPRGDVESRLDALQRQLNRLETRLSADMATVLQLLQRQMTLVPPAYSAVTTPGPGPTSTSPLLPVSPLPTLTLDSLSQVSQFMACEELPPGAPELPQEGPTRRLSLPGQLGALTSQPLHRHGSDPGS

T5 sequence (P23458 whole entry): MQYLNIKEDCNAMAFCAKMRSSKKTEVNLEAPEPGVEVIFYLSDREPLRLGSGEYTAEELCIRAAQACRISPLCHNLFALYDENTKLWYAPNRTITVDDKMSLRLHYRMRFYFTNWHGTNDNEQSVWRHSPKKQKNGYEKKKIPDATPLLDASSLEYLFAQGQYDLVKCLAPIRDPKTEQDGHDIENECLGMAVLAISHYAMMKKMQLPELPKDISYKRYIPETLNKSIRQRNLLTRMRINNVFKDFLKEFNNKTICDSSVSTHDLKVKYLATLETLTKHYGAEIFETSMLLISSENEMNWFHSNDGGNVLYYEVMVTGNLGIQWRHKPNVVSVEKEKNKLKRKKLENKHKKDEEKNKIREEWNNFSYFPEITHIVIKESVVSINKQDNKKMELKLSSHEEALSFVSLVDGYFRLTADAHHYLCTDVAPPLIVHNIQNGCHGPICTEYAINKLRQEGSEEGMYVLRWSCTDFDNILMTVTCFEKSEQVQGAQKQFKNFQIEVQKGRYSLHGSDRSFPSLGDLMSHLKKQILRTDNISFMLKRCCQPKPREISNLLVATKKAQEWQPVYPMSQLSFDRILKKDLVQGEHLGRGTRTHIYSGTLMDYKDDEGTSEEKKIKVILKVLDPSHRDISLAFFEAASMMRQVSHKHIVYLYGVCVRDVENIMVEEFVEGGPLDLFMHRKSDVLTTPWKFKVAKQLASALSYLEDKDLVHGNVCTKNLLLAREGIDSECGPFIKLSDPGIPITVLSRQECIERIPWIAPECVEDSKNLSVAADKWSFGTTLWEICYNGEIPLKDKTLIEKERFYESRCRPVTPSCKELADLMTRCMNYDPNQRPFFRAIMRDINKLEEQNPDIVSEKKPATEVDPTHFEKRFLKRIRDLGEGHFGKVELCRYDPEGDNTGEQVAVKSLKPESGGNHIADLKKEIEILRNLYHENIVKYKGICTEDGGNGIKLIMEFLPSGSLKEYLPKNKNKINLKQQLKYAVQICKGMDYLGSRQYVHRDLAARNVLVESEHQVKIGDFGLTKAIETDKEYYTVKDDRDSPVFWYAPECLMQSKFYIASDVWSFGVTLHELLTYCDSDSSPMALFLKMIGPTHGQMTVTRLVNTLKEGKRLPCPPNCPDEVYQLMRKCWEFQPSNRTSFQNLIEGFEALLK
T1 sequence (P29597 whole entry): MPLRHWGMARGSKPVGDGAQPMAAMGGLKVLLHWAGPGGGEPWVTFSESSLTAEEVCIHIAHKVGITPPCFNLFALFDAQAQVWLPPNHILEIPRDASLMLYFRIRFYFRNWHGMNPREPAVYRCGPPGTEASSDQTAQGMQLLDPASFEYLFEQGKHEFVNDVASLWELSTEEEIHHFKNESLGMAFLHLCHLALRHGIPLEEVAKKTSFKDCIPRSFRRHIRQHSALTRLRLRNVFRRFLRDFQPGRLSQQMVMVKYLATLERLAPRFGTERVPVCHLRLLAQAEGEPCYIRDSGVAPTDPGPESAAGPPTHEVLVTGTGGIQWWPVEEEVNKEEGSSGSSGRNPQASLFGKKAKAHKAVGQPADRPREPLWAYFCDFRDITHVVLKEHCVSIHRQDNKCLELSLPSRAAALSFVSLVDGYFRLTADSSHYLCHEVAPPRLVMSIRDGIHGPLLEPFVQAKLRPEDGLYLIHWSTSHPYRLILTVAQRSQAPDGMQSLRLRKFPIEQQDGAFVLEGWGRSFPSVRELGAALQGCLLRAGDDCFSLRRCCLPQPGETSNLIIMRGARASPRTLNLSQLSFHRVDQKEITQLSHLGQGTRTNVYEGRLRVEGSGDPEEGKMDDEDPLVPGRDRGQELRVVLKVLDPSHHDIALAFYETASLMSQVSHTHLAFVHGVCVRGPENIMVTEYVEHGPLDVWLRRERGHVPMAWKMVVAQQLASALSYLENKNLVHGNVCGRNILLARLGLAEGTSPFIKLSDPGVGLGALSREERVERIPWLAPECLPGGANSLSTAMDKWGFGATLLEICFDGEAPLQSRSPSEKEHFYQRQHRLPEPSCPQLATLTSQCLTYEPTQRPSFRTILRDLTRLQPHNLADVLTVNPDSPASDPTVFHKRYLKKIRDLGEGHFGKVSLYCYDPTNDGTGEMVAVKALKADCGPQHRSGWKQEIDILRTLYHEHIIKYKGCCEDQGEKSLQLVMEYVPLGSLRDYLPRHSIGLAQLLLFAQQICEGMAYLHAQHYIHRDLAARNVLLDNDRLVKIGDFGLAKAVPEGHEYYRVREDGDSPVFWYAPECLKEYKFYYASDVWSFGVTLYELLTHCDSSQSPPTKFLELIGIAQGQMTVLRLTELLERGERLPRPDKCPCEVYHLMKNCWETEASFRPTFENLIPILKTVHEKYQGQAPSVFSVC
T4 sequence (O60674 whole entry): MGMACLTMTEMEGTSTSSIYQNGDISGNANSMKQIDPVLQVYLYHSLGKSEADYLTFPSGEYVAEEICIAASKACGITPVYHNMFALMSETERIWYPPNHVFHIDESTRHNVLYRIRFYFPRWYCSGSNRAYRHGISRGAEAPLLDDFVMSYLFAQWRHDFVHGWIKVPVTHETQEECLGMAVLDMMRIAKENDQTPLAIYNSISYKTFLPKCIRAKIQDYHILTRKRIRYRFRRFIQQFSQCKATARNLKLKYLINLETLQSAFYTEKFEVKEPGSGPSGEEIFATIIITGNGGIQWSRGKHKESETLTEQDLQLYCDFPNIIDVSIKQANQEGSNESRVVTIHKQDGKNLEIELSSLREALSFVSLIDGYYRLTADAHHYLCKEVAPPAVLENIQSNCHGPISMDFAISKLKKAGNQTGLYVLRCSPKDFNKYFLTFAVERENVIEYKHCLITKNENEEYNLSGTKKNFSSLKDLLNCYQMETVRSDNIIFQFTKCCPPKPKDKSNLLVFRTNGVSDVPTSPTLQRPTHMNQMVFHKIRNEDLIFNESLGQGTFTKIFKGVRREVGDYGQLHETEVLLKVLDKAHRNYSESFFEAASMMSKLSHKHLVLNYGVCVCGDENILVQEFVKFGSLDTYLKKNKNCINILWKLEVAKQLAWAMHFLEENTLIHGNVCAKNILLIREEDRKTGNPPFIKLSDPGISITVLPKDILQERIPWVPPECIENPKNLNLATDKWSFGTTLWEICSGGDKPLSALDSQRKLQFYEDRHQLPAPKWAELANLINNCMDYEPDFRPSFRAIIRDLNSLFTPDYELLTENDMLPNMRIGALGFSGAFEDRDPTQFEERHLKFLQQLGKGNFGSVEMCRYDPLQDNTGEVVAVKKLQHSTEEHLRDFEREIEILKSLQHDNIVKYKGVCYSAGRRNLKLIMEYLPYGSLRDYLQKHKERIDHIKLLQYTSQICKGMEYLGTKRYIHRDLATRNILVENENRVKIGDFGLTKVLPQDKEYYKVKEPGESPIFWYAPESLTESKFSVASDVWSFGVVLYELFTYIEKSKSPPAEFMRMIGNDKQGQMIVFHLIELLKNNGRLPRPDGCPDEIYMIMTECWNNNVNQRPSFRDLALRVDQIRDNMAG
Chain of Tyrosine-protein kinase JAK2 (Homo sapiens, UniProt O60674, V617F) (O60674 whole entry V617F): as the sequence (O60674 whole entry) above, with V617F counted along it

## CNC(=O)c1cnc(Nc2ccc(F)cn2)cc1Nc1ccccc1S(C)(=O)=O
[1]
  IC50: 63 nM

## [2H]C([2H])([2H])NC(=O)c1nnc(NC(=O)C2CC2)cc1Nc1cccc(-c2ncn(C)n2)c1OC [DEUCRAVACITINIB]
[2]
  IC50: 3 nM
[3]
  solubility: < 1 µg/mL
[4]
  half-life: > 2 h

## CNC(=O)c1cnc(Nc2ccc(C#N)cn2)cc1Nc1cccc(-c2ncn(C)n2)c1OC
[5]
  IC50: 0.3 nM

## CNc1nc2sc(-c3cccc([C@@H](C)NC(=O)c4ccccc4S(C)(=O)=O)c3)nc2c2c1ncn2C
[6]
  inhibition: 99%
[7]
  inhibition: > 96%

## CC(C)CCN1c2nc(Nc3cc(F)c(O)c(F)c3)ncc2N(C)C(=O)C1C (stereo not drawn)
[8]
  IC50: 658 nM

## CC(C)CCN1c2nc(Nc3cc(F)c(O)c(F)c3)ncc2N(C)C(=O)C1(C)C
[8]
  IC50: 123 nM

## O=c1cc(-c2ccccc2)nc2c(-c3cccc([N+](=O)[O-])c3)c(C(F)(F)F)[nH]n12
[9]
  IC50: 14000 nM
[5]
  IC50: 9700 nM
[10]
  IC50: 50000 nM

## Nc1nc(CSc2nnc(NCC3CCCC3)s2)nc(Nc2ccc(F)cc2)n1
[11]
  Kd: 65000 nM
[12]
  Kd: 149000 nM

## NC(=O)c1ccccc1Nc1cc(Nc2ccc(F)cn2)ncc1C(N)=O
[1]
  IC50: 37 nM
[13]
  IC50: > 2000 nM

## O=C(Nc1c[nH]nc1-c1nc2cc(CN3CCOCC3)ccc2[nH]1)NC1CC1 [AT-9283]
[14]
  IC50: 60 nM

## c1nc2nc(Nc3ccc(N4CCOCC4)cc3)nc(NC3CCCCC3)c2[nH]1 [REVERSINE]
[14]
  IC50: 350 nM
[15]
  IC50: 350 nM

## CS(=O)(=O)N1CC[C@H](C#CC(=O)N2CCC[C@@H](c3ccc(Cl)c(Cl)c3)C2)C1
[16]
  IC50: 32 nM
[17]
  IC50: 46 nM

## CNC(=O)c1nnc(NC(=O)C2CC2)c2[nH]c(-c3ccc(N)cc3OC)cc12
[4]
  half-life: > 2.32 h
[18]
  IC50: > 30000 nM
